“Also recorded” adds a separate entry of the source.
Assays:
[1] = tested on: MOG-induced EAE GFAP-Luc/C57 mice; assay: Clinical neurologic scoring in MOG-induced monophasic EAE; type: in vivo, mouse; conditions: for clinical score compared to sham treated: 5 μg IV daily for 12 days from day 9, n=8 per group
From the text: (§1) Methods. Animals. Male FVB/N-Tg (GFAP-luc+/−) mice (Xenogen Corp, Alameda, CA) were crossed with either albino C57BL/6J-Tyrc-2j or SJL/J mice purchased from Charles River Laboratories (Wilmington, MA). The FI offspring were genotyped by PCR following the manufacturer's protocol. Female mice between 8-10 weeks of age positive for GFAP (GFAP-luc/C57 or GFAP-Luc/SJL) expression were used.
Induction of EAE and clinical assessment of animals. Active EAE was induced according to a standard protocol (Smith M, et al. Brain Research 1983:264:241-53). Mice were immunized on Day 0 by subcutaneous injection on both sides of the tail base with 100 μL of an emulsion composed of either PLP139-151 or MOG35-55 peptide in an equal volume of Freund's adjuvant, supplemented with 4 mg/mL killed M. tuberculosis H37Ra (Difco Laboratories, Detroit, MI). The initial dose of antigen was 100 μg of PLP peptide for inducing relapsing EAE in SJL/J mice, or 200 μg of MOG peptide per C57BL/6 mouse for induction of acute monophasic EAE. GFAP-Luc/SJL/J mice received a second PLP antigen immunization on Day 7. Immediately following these immunizations, mice received intravenous (IV) injections of 200 ng Bordetella pertussis toxin diluted in 200 μL phosphate buffered saline (PBS) (List Biological Laboratories, Campbell, CA). […] Animals were weighed and assessed daily for clinical signs of EAE by two blinded independent observers during the acute phase of illness, and followed three times a week during the later chronic phase. The monophasic EAE MOG C57BL6 model was monitored for 28-30 days and the PLP SJL/J relapsing model was followed for nearly 6 months after immunization. The clinical scoring system used to quantify behavioral neurological deficits in the EAE mouse models (Table 2) was previously described (Aquino D, et al. Journal of Neurochemistry 1990:54:1398-404). […]
Statistical analysis. […] Bioluminescence was measured by the number of days where luminescence intensity in the spinal cord exceeded a threshold of 0.5 relative to the left ear. […]

[2] = tested on: GFAP-luc; assay: GFAP-luc bioluminescence imaging (BLI) in MOG-induced EAE; type: in vivo, mouse
Experimental: (§2) Bioluminescence Imaging (BLI). Bioluminescent signals were quantified using the In Vivo Imaging System 100 (IVIS: Xenogen, Alameda, CA) with a cold Charged Coupled Device (CCD) camera mounted in a dark box. Three animals were imaged simultaneously. Mice received an IV injection of 1 mg/kg D-luciferin (Xenogen) 2-3 minutes prior to imaging and were immediately anesthetized with vaporized isoflurane for imaging. The imaging signal was quantified in units of photons per second per centimeter squared per steradian (photons/s·cm2/sr) using […] Version 3.1 (Xenogen) software and integrated over 2 minutes. For signal quantification, photons were obtained from a “region of interest” (ROI) that covered 2.18 cm2 of contiguous forebrain and 5.27 cm2 of spinal cord region. Bioluminescence was expressed as a ratio of the total photons value from the central nervous system ROI to the photon value obtained from an equal sized area over the left ear, used as an endogenous control. In the acute EAE model, measurements were typically taken every 1-2 days and the average of 2 consecutive days readings were used. Bioluminescence imaging was performed every other day after disease onset and twice weekly during the later chronic phase of the illness.
(§3) JM4 treatment. The JM4 peptide was first dissolved in distilled water to 2 mg/ml and stored at −80° C. Immediately before use, the peptide solution was further diluted to 5 μg/200 μl with PBS. […] The EAE mice were randomly divided into a JM4 treated and a sham treated group. The JM4 treated EAE animals (4-10 per group) were treated daily with IV JM4 250 μg/kg of the peptide in PBS for 10-12 days. Control EAE animals were sham-treated with IV saline for the same time period. To evaluate the treatment effects, mice underwent BLI examination as well as clinical and histopathologic evaluation.
(§4) Statistical analysis. Data is presented as the mean±SEM. Two tailed t-tests were used to compare JM4 effects on BLI and clinical scores. The long-term effects of JM4 were studied in the relapsing EAE model by using each subject's average clinical score from day 60 onward. Bioluminescence was measured by the number of days where luminescence intensity in the spinal cord exceeded a threshold of 0.5 relative to the left ear. Survival data was examined using a two-tailed log-rank test. Values of p<0.05 were considered significant.

[3] = tested on: PLP-induced relapsing-remitting EAE GFAP-Luc/SJL mice; assay: Clinical scoring, relapse and survival in PLP-induced relapsing-remitting EAE; type: in vivo, mouse; conditions: for long term clinical scores compared to sham treated: for over five months, n=4 JM-4, n=5 sham, p<0.05 at day 60 onward
From the text: as §1
Induction of EAE and clinical assessment of animals. […] Mice were immunized on Day 0 by subcutaneous injection on both sides of the tail base with 100 μL of an emulsion composed of either PLP139-151 or MOG35-55 peptide in an equal volume of Freund's adjuvant, supplemented with 4 mg/mL killed M. tuberculosis H37Ra (Difco Laboratories, Detroit, MI). The initial dose of antigen was 100 μg of PLP peptide for inducing relapsing EAE in SJL/J mice, or 200 μg of MOG peptide per C57BL/6 mouse for induction of acute monophasic EAE. GFAP-Luc/SJL/J mice received a second PLP antigen immunization on Day 7. Immediately following these immunizations, mice received intravenous (IV) injections of 200 ng Bordetella pertussis toxin diluted in 200 μL phosphate buffered saline (PBS) (List Biological Laboratories, Campbell, CA). The GFAP-Luc/C57BL mice received an additional IV injection of 200 ng Bordetella pertussis toxin on post-inoculation Day 2. Animals were weighed and assessed daily for clinical signs of EAE by two blinded independent observers during the acute phase of illness, and followed three times a week during the later chronic phase. The monophasic EAE MOG C57BL6 model was monitored for 28-30 days and the PLP SJL/J relapsing model was followed for nearly 6 months after immunization. The clinical scoring system used to quantify behavioral neurological deficits in the EAE mouse models (Table 2) was previously described (Aquino D, et al. Journal of Neurochemistry 1990:54:1398-404).
Immediately before use, the peptide solution was further diluted to 5 μg/200 μl with PBS. […] Control EAE animals were sham-treated with IV saline for the same time period. To evaluate the treatment effects, mice underwent BLI examination as well as clinical and histopathologic evaluation.
Statistical analysis. Data is presented as the mean±SEM. […] Bioluminescence was measured by the number of days where luminescence intensity in the spinal cord exceeded a threshold of 0.5 relative to the left ear. Survival data was examined using a two-tailed log-rank test. Values of p<0.05 were considered significant.

[4] = tested on: GFAP-luc; assay: GFAP-luc bioluminescence imaging flare-ups in PLP-induced relapsing-remitting EAE; type: in vivo, mouse; conditions: for number of imaging flare ups / GFAP-luc expression compared to sham treated: relapsing-remitting EAE, brain or spinal cord
Experimental: as §2, §3, §4

[5] = tested on: SJL/J relapsing-remitting EAE mice; assay: Spinal cord histopathology (Luxol fast blue, SMI-32, mouse IgG) in SJL/J relapsing-remitting EAE; type: in vivo
From the text: Histopathology. To assess CNS inflammation and demyelination at different time points after immunization, EAE mice in the JM4 peptide-treated and sham-treated groups were anesthetized and perfused with ice-cold PBS, followed by 4% paraformaldehyde into the left ventricle. Spinal cords and brain were removed. Tissues were then embedded in paraffin, sectioned and stained with Luxol-Fast Blue/PAS to determine the extent of demyelination. Five-micron paraffin sections from the high cervical, thoracic and low lumbosacral region of the spinal cord were placed on the same slide. Each slide contained a control normal spinal cord section, a sham-treated EAE cord, and spinal cord sections from JM4 treated EAE animals. Histopathologic examination was performed in blinded fashion. In addition, SMI-32 anti-neurofilament H immunohistochemical staining was completed to assess acute axonal injury (Aquino D, et al. Journal of Neurochemistry 1990:54:1398-404). In brief, 5 μm sections were de-paraffinized, treated with antigen-retrieving solution, and blocked with normal horse serum to minimize nonspecific binding. The sections were first incubated with mouse SMI-32 antibody (Sternberger Monoclonals, Lutherville, MD) diluted 1:5,000 in PBS overnight at 4° C. After two 5-minute PBS washes, the sections were incubated with biotinylated horse anti-mouse IgG (Vector Labs, Burlingame, CA), and then by horseradish peroxidase (HRP)-avidin complex (Vector Labs) for 30 minutes each. Immunostaining was visualized by reacting the sections with diaminobenzidine tetrahydrochloride (Stable DAB: Invitrogen) for 1 to 3 minutes. Excess DAB was removed by washing with distilled water and the slides were evaluated using light microscopy.

[6] = tested on: complement component C3; assay: C3/GFAP immunohistochemistry for A1 astrocyte activation in spinal cord of MOG EAE mice; type: in vivo, mouse
Experimental: Spinal cord (cut into 6-7 equal pieces from cervical to sacral) was frozen and serially cut at 8 μm-thick cross sections and collected on slides, then post-fixed in acetone at −20° C. for 10 min. Sections were first treated with Target Unmasking Fluid (Pan Path) at 90° C. for 10 min, and blocked in 2% normal horse serum for 10 min. Sections were incubated overnight at 4° C. with either monoclonal rat anti-mouse C3 complement (Abcam, AB11862) at 1:50 or polyclonal rabbit anti-mouse GFAP (Dako Z0334GFAP) at 1:500. The next day sections were washed in PBS three times for 10 min each and incubated with cy3 or cy2 conjugated goat anti-mouse/rat/rabbit IgG (Jackson ImmunResearch) at 1:120 working dilution for 1 hour. Sections were washed in dH2O three times for 10 min each, followed by fluorescence microscopy imaging.
Immunohistochemistry images were obtained using an Olympus BX41 fluorescent microscope (Center Valley, PA, USA) fitted with ProgRes MF cool digital camera using 4× or 10× objectives. Half of each section from different spinal levels was quantified by measuring the percent area in the structure where label exceeded a constant threshold value using Image Pro 4.0 image analysis software (BD Biosciences, Franklin Lakes, NJ).
as §4

[7] = Hematopoietic and other side effects; conditions: acute MOG and relapsing-remitting PLP SJL/J EAE models
[8] = tested on: EAE mice; conditions: cited from earlier work
[9] = symptomatic EAE mice, literature; cited from earlier work

For GCAEHCSLNENITVPDTKV [JM-4], the “clinical score compared to sham treated” value [1] was “significantly lower”, the “clinical score compared to sham treated” value ([1]; listed as JM4) was “significant reduction in clinical score” and the “maximum mean clinical score” value ([1]; JM4 250 μg/kg IV for 12 days starting day 9 post-immunization, score scale 0-6 (Table 2), sham 3.7±0.4, p<0.05) was 2.25±0.3. For the same sequence, the “peak bioluminescent values in forebrain and spinal cord compared to sham treated” value ([2]; 5 μg IV daily for 12 days from day 9, n=8, p<0.05) was “significantly lower”, the “spinal cord bioluminescence signal after start of treatment, single imaged animal” value ([2]; FIG. 3A, treatment started day 9) was “virtual absence of spinal cord signal by day 4” and the “GFAP-luc signal returned to baseline earlier than sham-treated group” value ([2]; MOG EAE) was 3 to 4 days. The “reduction of bioluminescence from peak disease scores compared with sham animals” value ([2]; at days 11 to 12) was 3-4 fold, the “clinical deficit improved earlier than sham-treated animals” value ([3]; acute phase of the disease) was 7 days and the survival ([3]; at 100 days, Kaplan-Meier, sham 50%) was 100%. For the same sequence, the average clinical score ([3]; for 130 days, 12-day course IV 5 μg/day from day 9, sham around 2) was “under 1”, the “long term clinical scores compared to sham treated” value [3] was “remarkably reduced” and the “long term clinical scores compared to sham treated” value ([3]; listed as JM4) was “significantly lower”. The “animals remaining relapse-free by clinical scoring” value ([3]; throughout the 5-month experiment, sham 20%) was 50%, the “number of spinal cord bioluminescence flare ups (mean+/−SEM)” value ([4]; 5 μg IV daily for 12 days, n=8 JM-4, n=7 sham, sham 10.29+/−2.447, p<0.05) was 4.0+/−1.018 and the “average daily intensity of the bioluminescent signal versus sham-treated” value ([4]; chronic remitting-relapsing EAE) was “not significantly different”. For the same sequence, the “number of imaging flare ups / GFAP-luc expression compared to sham treated” value [4] was “substantially less; also recorded: significantly decreased”, the “number of imaging flare ups / GFAP-luc expression compared to sham treated” value ([4]; listed as JM4) was “significantly decreased” and the “spinal cord demyelination and axonal injury” value ([5]; Luxol fast blue, ventral white matter) was “protective against spinal cord demyelination and axonal injury”. For the same sequence, the “number of injured axons (SMI-32) rimming the ventral spinal cord versus sham” value ([5]; mouse, in vivo) was “large reduction in number of injured axons”, the “IgG immunoreactivity in spinal cord (blood-brain barrier breakdown)” value ([5]; versus saline treated EAE) was “profoundly reduced” and the “C3 expression in spinal cord” value ([6]; 24 days post immunization, JM4 250 μg/kg IV 12 days from day 9, n=7 per group, EAE 17.5+/−3.7, p<0.05) was 8.3+/−1.9. For the same sequence, the “attenuation of A1 astrocyte activation” value ([6]; EAE mice) was “over 50%”, the “C3 / A1 astrocyte immunoreactivity versus untreated EAE” value ([6]; spinal cord) was “massive reduction of C3 positive A1 astrocytes; also recorded: significant decrease in C3 immunoreactivity” and the hematogenic side effects [7] was “without the negative hematogenic side effects”. For the same sequence, the “decrease of dendritic cells” value ([8]; EAE mice) was “ten-fold”, the mononuclear cells count ([8]; EAE mice) was “reduced elevated mononuclear cells count to normal” and the “proinflammatory cytokines including IL-2, IL-6, TNF-alpha and INF-gamma” value ([8]; EAE mice) was “decreased proinflammatory cytokines”. The “T helper Th 17 positive cells” value ([8]; SJL/J EAE mice) was “reduce T helper Th 17 positive cells”, the Treg cells ([8]; SJL/J EAE mice) was “expand Treg cells” and the tissue protective properties ([8]; symptomatic EAE mice, literature) was “robust EPO-like tissue protective properties”. For the same sequence, the erythropoietic activity [9] was “without the activities responsible for excessive erythropoiesis”.

Reference: patent US20240207361A1, “ERYTHROPOIETIN-DERIVED PEPTIDES FOR TREATING RELAPSING-REMITTING MULTIPLE SCLEROSIS” (The United States Government as represented by the …, priority 2021, published 2024)
